Series [1] in a line: Solubility on dilution in medium containing serum. In kind it is physicochemical.
Another series deals with HY79b pigmented rabbits. As to the kind of experiment: Rabbit retinal vascular hyperpermeability model induced by rhVEGF-A165. In kind it is in vivo. As for the experimental part:
Rabbit retinal vascular hyperpermeability model. Male HY79b pigmented rabbits (8-12 week-old) were anesthetized by an intramuscular injection of Rompun® (xylazine)/Imalgene® (ketamine). Compound (600 μg BT2, BT3 or saline vehicle containing 0.5% Tween 80 and 10% DMSO vehicle in 100 μl) was injected into the right eye 5d prior to rhVEGF-A165 induction. Injections were performed on anesthetized animals under an operating microscope using a 250 μl Hamilton syringe (fitted with 30G needle). Retinal vascular permeability was induced by a single 50 μl IVT injection of 500 ng rhVEGF-A165 (diluted in PBS with carrier protein) into the right eye. Forty-seven hours (+/−3 h) after induction, sodium fluorescein (10% in saline, 50 mg/kg) was injected into the marginal ear vein. One hour after fluorescein injection, animals were anaesthetized and pupils were dilated by instillation of one drop of 0.5% tropicamide. Ocular fluorescence in both eyes was measured with a FM-2 Fluorotron Master ocular fluorophotometer. Animals were euthanized by injection of pentobarbital.

The next series deals with HMEC-1. As to the kind of experiment: Endothelial proliferation assay using the xCELLigence system. The class given is cell-based, human. Conditions: for serum-inducible endothelial proliferation (xCELLigence cell index): HMEC-1, 5% FBS, 0.2-1 μM, 79 h. As for the experimental part:
Endothelial proliferation assay using the xCELLigence system. HMEC-1 proliferation was evaluated using the xCELLigence System (Roche, Castle Hill). Briefly, HMEC-1 (5×10^3 cells/well) were seeded in a 96-well E-plate and inserted into the xCELLigence RTCA station (Roche). Cells were serum-deprived for 24 h in MCDB131 medium which contained 10 ng/ml EGF (Sigma-Aldrich) and 1 μg/ml hydrocortisone (Sigma-Aldrich) then treated with compound (0.2-1 μM) in medium containing 5% FBS, 10 ng/ml EGF (Sigma-Aldrich) and 1 μg/ml hydrocortisone (Sigma-Aldrich). Cell growth was monitored automatically every 15 min by xCELLigence system. Cell index (CI) represents a quantitative measure of each well cell growth. In this system, CI a unitless parameter that reports impedance of electron flow caused by adherent cells.

Another series deals with CD31. As to the kind of experiment: Matrigel plug assay, CD31 staining. In kind it is in vivo. Conditions: C57BL/6 mice; 2.5 mg/mouse in plug with VEGF-A165 and heparin; 7 days. Here is the method:
Matrigel plug assay. Matrigel (500 μl) containing VEGF-A165 (100 ng/ml), heparin (10U) and BT2 or BT3 (2.5 mg/mouse) or its vehicle (saline containing 0.01% DMSO and 0.5% Tween 80) was injected subcutaneously into the left flanks of male 8 week-old C57BL/6 mice. After 7d the mice were sacrificed by CO2 asphyxiation and the plugs carefully removed. Formalin-fixed paraffin embedded sections were prepared from Matrigel plugs for immunohistological assessment. Heat-induced epitope retrieval was applied to all deparaffinized sections (4 μm Superfrost slides) in citrate buffer, pH 6 for 5 min at 110° C. Immunostaining for all groups with a given antibody was performed simultaneously and development time was identical. […]
Slides were scanned using an Aperio ScanScope XT slide scanner (Leica Biosystems, Mt Waverley, Vic Australia) and images captured using ImageScope software (Leica Biosystems). Positive intraplug staining was assessed using Image-Pro Plus software (Cybernetics, Bethesda, MD) in 5-12 randomly selected fields of view for each plug photographed under 10× (CD31), 20× (VCAM-1) and 40× (FosB) objectives and expressed as integrated optical density (IOD, the product of calibrated intensity (optical density) and area, i.e. IOD=intensity (mean)×area) (Media Cybernetics) (Liu, H., et al., Sci Rep 6, 21319 (2016)). […]

The target in series [2] is T1, Recombinant human His-MEK2 (Homo sapiens, UniProt P36507).
T1 construct: purchased ThermoFisher Scientific PV3615
T1 sequence (P36507 whole entry): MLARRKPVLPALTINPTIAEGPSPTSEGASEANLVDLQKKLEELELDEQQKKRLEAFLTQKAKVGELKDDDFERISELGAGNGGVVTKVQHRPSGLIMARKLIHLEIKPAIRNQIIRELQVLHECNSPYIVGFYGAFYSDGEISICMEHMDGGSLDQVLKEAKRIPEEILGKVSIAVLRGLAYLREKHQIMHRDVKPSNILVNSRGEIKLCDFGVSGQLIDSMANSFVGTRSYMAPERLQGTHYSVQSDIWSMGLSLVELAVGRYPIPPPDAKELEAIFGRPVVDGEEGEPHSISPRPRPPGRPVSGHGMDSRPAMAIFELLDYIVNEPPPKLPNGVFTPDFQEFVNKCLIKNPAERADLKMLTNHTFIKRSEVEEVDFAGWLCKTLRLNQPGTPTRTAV
As to the kind of experiment: SPR (Biacore T200) on immobilised His-MEK2. Conditions: 15° C.; 20 mM HEPES, 150 mM NaCl, 5% DMSO pH 7.4. In kind it is binding. As for the experimental part:
SPR. SPR was performed on a Biacore T200. The active and reference flow cells of a Xantec NIHMC Ni sensor chip were conditioned with 0.5M NaEDTA followed by 5 mM NiCl2 in immobilisation buffer (20 mM HEPES, 150 mM NaCl, pH 7.4). Recombinant human His-MEK1 and His-MEK2 (500 nM, ThermoFisher Scientific, cat. PV3303 and PV3615, respectively) were injected for 15 min at 10 μl min^−1 over separate active flow cells. All immobilisation was carried out at 25° C. Following immobilisation, the temperature was lowered to 15° C., and the buffer changed to 20 mM HEPES, 150 mM NaCl, 5% DMSO pH 7.4. Samples of PD98059 (2.5-30 μM in running buffer) and BT2 (1.25-15 μM) were injected at a flow rate of 30 μl min^−1 over immobilised MEK1 and MEK2. Solvent correction was applied to the data using a DMSO standard curve. Data were analysed using the Biacore T200 Evaluation software. Prior to SPR, limits of compound solubility were determined using ^1H 1D NMR.
For orientation: In SPR one partner is held on a chip, and binding of the other changes the refractive index at the surface.

Another series concerns BAEC. The experiment in a line: Endothelial dual chamber migration assay toward VEGF-A165. The class given is cell-based, bovine. Conditions: 1 μM; Transwell; 10% FBS and 50 ng/ml VEGF-A165 in lower chamber; 24 h. As for the experimental part: Endothelial dual chamber migration assay. BAEC (6×10^3 cells/well) suspended in DMEM supplemented with 10% FBS were seeded into the upper chamber of 24-well plates fitted with Millicell cell culture inserts (cat. PI8P01250, Millipore). After 48 h, the medium was changed to DMEM supplemented with 0.01% FBS and the cells were incubated for 48 h. Compounds prepared in DMEM containing 0.01% FBS were added to the upper chamber. VEGF-A165 (50 ng/ml, Sigma, cat. V7259) in medium containing 10% FBS was added to the lower chamber. After 24 h, medium from the upper chamber was removed and a cotton swab was used to remove non-migrated cells and excess liquid. The insert was placed in 70% ethanol for 10 min to allow cell fixation and membranes were dried for 10-15 min. Filters were excised and placed on slides. Mounting medium (Fluoroshield™ with DAPI, Sigma, cat. 6057) was added and specimens were visualized using an EVOS FL microscope.

Molecules are shown by their SMILES.

As for `CCOC(=O)Nc1ccc2c(c1)C(=O)N(CC)c1ccccc1O2` [BT2, (10-ethyl-11-oxo-10,11-dihydro-dibenzo[b,f][1,4]oxazepin-2-yl)-carbamic acid ethyl ester], in series [1] (adding serum to the diluent), the “effect of serum in the diluent on solubility” value is “increased BT2 solubility”. Further, in the series with HY79b pigmented rabbits (single IVT 600 μg, 5 d before induction, after 2 days), the “inhibition of retinal leakage induced by rhVEGF-A165” value is on record as ~50%. Besides, the “serum-inducible endothelial proliferation (xCELLigence cell index)” value with HMEC-1 is given as “inhibited serum-inducible proliferation at concentrations in a dose-dependent manner”. Further, the “biological activity of formulation after autoclaving” value in the series with HMEC-1 (autoclaved (121° C., 15 psi, 20 min), 4 months storage at 22° C., 0.4, 0.8 μM) is “biologically active”. Moreover, the “biological efficacy of stored formulation” value in the series on HMEC-1 (heat-treated or not, storage up to 16 months) is listed as “no loss in biological efficacy”. The “inhibition of serum-inducible endothelial proliferation by stored formulation” value with HMEC-1 (with or without 100° C. for 10 min, 6 weeks storage, 0.4, 0.8 μM) was “retained its ability to inhibit serum-inducible endothelial proliferation”. For the same compound, the “new blood vessel formation (CD31 staining) in Matrigel plugs” value with CD31 is “suppressed new blood vessel formation”. The “binding to His-MEK2 (SPR)” value in series [2] is “bound to His-MEK1 significantly better than to His-MEK2”. Further, in the series on BAEC, the “migration of BAEC toward VEGF-A165” value is given as “inhibited migration”.

For the compound `CCN1C(=O)c2cc(N)ccc2Oc2ccccc21` [BT3, 2-amino-10-ethyldibenzo[b,f][1,4]oxazepin-11 (10H)-one], the “solubility relative to BT2 and analogues” value in series [1] (dilution in medium containing serum) is on record as “the most soluble of all these dibenzoxazepinones”. Moreover, the “effect on retinal vascular leakage induced by rhVEGF-A165” value with HY79b pigmented rabbits (IVT 600 μg, fluorescence ratio R/L) was “inactive”. Also, the “serum-inducible endothelial proliferation (xCELLigence cell index)” value in the series on HMEC-1 is listed as “no inhibitory effect”. The “new blood vessel formation (CD31 staining) in Matrigel plugs” value in the series with CD31 was “no effect”. Besides, the “binding to His-MEK2 (SPR)” value in series [2] was “no appreciable binding”. Moreover, the “migration of BAEC toward VEGF-A165” value in the series with BAEC is “neither BT3, nor PD98059 (allosteric MEK inhibitor), imatinib (tyrosine kinase inhibitor) or tofacitinib (Janus kinase inhibitor) had an inhibitory effect”.

The record behind these values is patent US20260102407A1, “TREATMENT METHODS” (priority 2020, published 2026).
